Results on 3 compounds are retold here after patent US20090074844A1, “TRENADERMAL ABSORPTION PREPARATION” (ONO PHARMACEUTICAL CO., LTD., priority 2005, published 2009).

The nature of data set [1]: Drug permeability test using human skin, Franz type cell, LC/MS/MS. Format: in vitro ADME. As to conditions: preparation of Example 3 (70 μg/cm^2, oleyl alcohol), slope of cumulative permeation quantities, FIG. 4, n=3. How it is done:
Drug permeability test using human skin Human skin purchased from Asterand (abdominal skin of a person, epidermal-dermal skin (no heat treatment), n=3) was attached to a Franz type cell (1.78 cm^2), and the pharmaceutical preparation produced in Example 3 was applied to the stratum corneum side. Physiological saline (8 ml) was applied to the dermal layer side cell. From the dermal layer side cell, 1 ml portion thereof was periodically collected, and the compound A and compound B were determined by LC/MS/MS method under the following conditions. Cumulative permeation quantities until 48 hours were determined to calculate average values.
LC/MS/MS Measuring Conditions (HPLC)
Measuring instrument: Perkin-Elmer Series 200 Micro-pumps and CTC […]
Flow rate: 300 μl/minute Injection quantity: 5 μl Running time: 4.5 minutes Retention time: compound A; until 3.45 minutes/compound B; until 3.25 minutes Mass spectrometry […]
Human skin permeability of compound A and compound B which is its active form was measured to calculate the cumulative permeation quantities, with the results shown in FIG. 4. Their skin permeation rates were calculated from the slope of cumulative permeation quantities in FIG. 4. […]
FIG. 4 is a result of a human skin permeability test which used the pharmaceutical preparations produced in Example 3. It represents cumulatively detected amounts of compound A and compound B.

Data set [2] can be described thus: In vitro skin permeability test (1), Franz type cell. It is filed as in vitro ADME, rat. As to conditions: for cumulative permeation quantity until 24 hours: patch (pharmaceutical preparation 1A, 0.2 mg/cm^2) on rat abdominal skin, determined as compound B or PGE1, FIG. 1. How it is done:
The hair-removed skin extracted from the abdominal region of each of male Wister rats (7 weeks of age, Wister/Slc, n=3) was attached to a Franz type cell (1.1 cm in diameter). The aforementioned pharmaceutical preparation 1A prepared in Example 1 was applied to the stratum corneum of the hair-removed skin extracted from the abdominal region. Hanks' buffer (HBSS) (Sigma, pH 7.4) was applied to the dermal layer side cell. HBSS (200 μL) was periodically collected from the dermal layer side cell, and compound B as the active form of compound A or PGE1 was determined by the HPLC method under the following conditions. Cumulative permeation quantities until 24 hours were determined to calculate average values.
Compound A (Active Form: Compound B)
Column: YMC-Pack ODS A-302 (4.6 mm I.d., 150 mm),
Column temperature: 50° C.,
Moving bed: 0.1% phosphoric acid aqueous solution: acetonitrile=7:3,
Detection wavelength: 220 nm,
Internal standard: ethyl p-hydroxybenzoate.
Column temperature: 30° C.,
Moving bed: 0.02 M potassium hydrogenphosphate aqueous solution:acetonitrile=3:2,
Detection wavelength: 205 nm,
Internal standard: n-propyl p-hydroxybenzoate.
FIG. 1 is a result of the in vitro skin permeability test (1) in Test Example (1) of Biological Examples. The cumulative permeation quantity of compound A represents a value calculated by converting the detected value of compound B into compound A.

Compound `COCc1cccc(C[C@H](O)/C=C/[C@H]2[C@H](O)CC(=O)[C@@H]2CCSCCCC(=O)O)c1` [compound B, 4-{[2-((1R,2R,3R)-3-hydroxy-2-{(1E,3S)-3-hydroxy-4-[3-(methoxymethyl)phenyl]but-1-enyl}-5-oxocyclopentyl)ethyl]sulfanyl}butanoic acid] displayed a skin permeation rate in data set [1] of 0.07±0.01 μg/cm^2/hr.
`CCCCC[C@H](O)/C=C/[C@H]1[C@H](O)CC(=O)[C@@H]1CCCCCCC(=O)O` [PGE1, reference compound]: the “cumulative permeation quantity until 24 hours” value in data set [2] (HBSS pH 7.4) is listed as “high cumulative permeation quantity was not obtained”.
In data set [1], `COCc1cccc(C[C@H](O)/C=C/[C@H]2[C@H](O)CC(=O)[C@@H]2CCSCCCC(=O)OC)c1` [compound A, methyl 4-{[2-((1R,2R,3R)-3-hydroxy-2-{(1E,3S)-3-hydroxy-4-[3-(methoxymethyl)phenyl]but-1-enyl}-5-oxocyclopentyl)ethyl]sulfanyl}butanoate] yielded a skin permeation rate of 0.16±0.04 μg/cm^2/hr. Also, the “cumulative permeation quantity until 24 hours” value in data set [2] (HBSS pH 7.4) was “high cumulative permeation quantity was obtained”. Besides, the “conversion of compound A into the active form, compound B, during permeation through the skin” value in data set [2] (patch preparation 1A on rat abdominal skin) is on record as “completely converted”. The “compound A in the dermal layer side cell” value in data set [2] (patch preparation 1A on rat abdominal skin, HBSS pH 7.4) is on record as “not detected”.
